According to the supplement of paper PMC10307832:

How the values were obtained:
Bicalutamide = compound: CC(O)(CS(=O)(=O)c1ccc(F)cc1)C(=O)Nc1ccc(C#N)c(C(F)(F)F)c1 [Bicalutamide]; test: relative viability (nuclei count vs DMSO), 5 days (fraction); higher = more cells survive
Summary of the method: (§1)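 Lung cancer cell lines in 1536-well plates were exposed by pinning to five library-drug doses (not always all listed) √10 apart, following an overnight hold at 37 °C. MetaXpress counted Hoechst-stained nuclei from 4× images taken after 5 days without medium change. Viability is the median ratio of treated-well to vehicle-well nuclei across plates. Plates required control CV below 25% and at least one doubling.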

Bromopyruvate = compound: C(C(=O)C(=O)O)Br [Bromopyruvate]; test: as above
Summary of the method: as §1

NCI-H596
relative viability (Bicalutamide; 0.08 µM): 0.956 | relative viability (Bicalutamide; 0.253 µM): 0.953 | relative viability (Bicalutamide; 0.8 µM): 1.07 | relative viability (Bicalutamide; 2.53 µM): 1.12 | relative viability (Bromopyruvate; 1 µM): 1.09 | relative viability (Bromopyruvate; 3.162 µM): 0.982 | relative viability (Bromopyruvate; 10 µM): 1.03 | relative viability (Bromopyruvate; 31.62 µM): 0.862 | relative viability (Bromopyruvate; 100 µM): 1.12

NCI-H647
relative viability (Bicalutamide; 0.08 µM): 0.987 | relative viability (Bicalutamide; 0.253 µM): 0.886 | relative viability (Bicalutamide; 0.8 µM): 1.37 | relative viability (Bicalutamide; 2.53 µM): 0.893 | relative viability (Bromopyruvate; 1 µM): 1 | relative viability (Bromopyruvate; 3.162 µM): 1.08 | relative viability (Bromopyruvate; 10 µM): 1.17 | relative viability (Bromopyruvate; 31.62 µM): 1.03 | relative viability (Bromopyruvate; 100 µM): 0.951

NCI-H650
relative viability (Bicalutamide; 0.08 µM): 1.08 | relative viability (Bicalutamide; 0.253 µM): 1.03 | relative viability (Bicalutamide; 0.8 µM): 1.11 | relative viability (Bicalutamide; 2.53 µM): 0.837 | relative viability (Bromopyruvate; 1 µM): 0.944 | relative viability (Bromopyruvate; 3.162 µM): 1 | relative viability (Bromopyruvate; 10 µM): 0.98 | relative viability (Bromopyruvate; 31.62 µM): 0.887 | relative viability (Bromopyruvate; 100 µM): 0.895

NCI-H661
relative viability (Bicalutamide; 0.08 µM): 0.987 | relative viability (Bicalutamide; 0.253 µM): 0.998 | relative viability (Bicalutamide; 0.8 µM): 1.04 | relative viability (Bicalutamide; 2.53 µM): 1.01 | relative viability (Bromopyruvate; 1 µM): 1.02 | relative viability (Bromopyruvate; 3.162 µM): 0.992 | relative viability (Bromopyruvate; 10 µM): 1.02 | relative viability (Bromopyruvate; 31.62 µM): 1.01 | relative viability (Bromopyruvate; 100 µM): 0.972

NCI-H727
relative viability (Bicalutamide; 0.08 µM): 1.02 | relative viability (Bicalutamide; 0.253 µM): 0.807 | relative viability (Bicalutamide; 0.8 µM): 1.13 | relative viability (Bicalutamide; 2.53 µM): 1.05 | relative viability (Bromopyruvate; 1 µM): 0.959 | relative viability (Bromopyruvate; 3.162 µM): 1.19 | relative viability (Bromopyruvate; 10 µM): 1.09 | relative viability (Bromopyruvate; 31.62 µM): 1.08 | relative viability (Bromopyruvate; 100 µM): 1.03

NCI-H838
relative viability (Bicalutamide; 0.08 µM): 0.95 | relative viability (Bicalutamide; 0.253 µM): 0.908 | relative viability (Bicalutamide; 0.8 µM): 1.05 | relative viability (Bicalutamide; 2.53 µM): 0.76 | relative viability (Bromopyruvate; 1 µM): 0.994 | relative viability (Bromopyruvate; 3.162 µM): 0.972 | relative viability (Bromopyruvate; 10 µM): 1.05 | relative viability (Bromopyruvate; 31.62 µM): 0.995 | relative viability (Bromopyruvate; 100 µM): 0.894

NCI-H1299
relative viability (Bicalutamide; 0.08 µM): 1.01 | relative viability (Bicalutamide; 0.253 µM): 1.04 | relative viability (Bicalutamide; 0.8 µM): 1.05 | relative viability (Bicalutamide; 2.53 µM): 1 | relative viability (Bromopyruvate; 1 µM): 1.01 | relative viability (Bromopyruvate; 3.162 µM): 1 | relative viability (Bromopyruvate; 10 µM): 1.04 | relative viability (Bromopyruvate; 31.62 µM): 0.968 | relative viability (Bromopyruvate; 100 µM): 0.983

NCI-H1355
relative viability (Bicalutamide; 0.08 µM): 1.03 | relative viability (Bicalutamide; 0.253 µM): 0.918 | relative viability (Bicalutamide; 0.8 µM): 1.09 | relative viability (Bicalutamide; 2.53 µM): 0.946 | relative viability (Bromopyruvate; 1 µM): 1.01 | relative viability (Bromopyruvate; 3.162 µM): 1.03 | relative viability (Bromopyruvate; 10 µM): 1.08 | relative viability (Bromopyruvate; 31.62 µM): 0.959 | relative viability (Bromopyruvate; 100 µM): 0.953

NCI-H1395
relative viability (Bicalutamide; 0.08 µM): 1.05 | relative viability (Bicalutamide; 0.253 µM): 0.9 | relative viability (Bicalutamide; 0.8 µM): 1.03 | relative viability (Bicalutamide; 2.53 µM): 0.82 | relative viability (Bromopyruvate; 1 µM): 1.07 | relative viability (Bromopyruvate; 3.162 µM): 0.896 | relative viability (Bromopyruvate; 10 µM): 0.955 | relative viability (Bromopyruvate; 31.62 µM): 0.787 | relative viability (Bromopyruvate; 100 µM): 1.1

NCI-H1437
relative viability (Bicalutamide; 0.08 µM): 0.997 | relative viability (Bicalutamide; 0.253 µM): 0.966 | relative viability (Bicalutamide; 0.8 µM): 1.07 | relative viability (Bicalutamide; 2.53 µM): 0.984 | relative viability (Bromopyruvate; 1 µM): 1.05 | relative viability (Bromopyruvate; 3.162 µM): 0.961 | relative viability (Bromopyruvate; 10 µM): 1.04 | relative viability (Bromopyruvate; 31.62 µM): 0.972 | relative viability (Bromopyruvate; 100 µM): 1

NCI-H1563
relative viability (Bicalutamide; 0.08 µM): 0.965 | relative viability (Bicalutamide; 0.253 µM): 0.978 | relative viability (Bicalutamide; 0.8 µM): 1.01 | relative viability (Bicalutamide; 2.53 µM): 0.852 | relative viability (Bromopyruvate; 1 µM): 0.952 | relative viability (Bromopyruvate; 3.162 µM): 0.97 | relative viability (Bromopyruvate; 10 µM): 0.973 | relative viability (Bromopyruvate; 31.62 µM): 0.926 | relative viability (Bromopyruvate; 100 µM): 0.987

NCI-H1623
relative viability (Bicalutamide; 0.08 µM): 0.628 | relative viability (Bicalutamide; 0.253 µM): 0.89 | relative viability (Bicalutamide; 0.8 µM): 0.969 | relative viability (Bicalutamide; 2.53 µM): 0.904 | relative viability (Bromopyruvate; 1 µM): 1.07 | relative viability (Bromopyruvate; 3.162 µM): 0.944 | relative viability (Bromopyruvate; 10 µM): 1.25 | relative viability (Bromopyruvate; 31.62 µM): 0.973 | relative viability (Bromopyruvate; 100 µM): 0.948

NCI-H1648
relative viability (Bicalutamide; 0.253 µM): 0.662 | relative viability (Bicalutamide; 0.8 µM): 0.93 | relative viability (Bicalutamide; 2.53 µM): 1.2 | relative viability (Bromopyruvate; 1 µM): 0.878 | relative viability (Bromopyruvate; 3.162 µM): 0.916 | relative viability (Bromopyruvate; 10 µM): 0.991 | relative viability (Bromopyruvate; 31.62 µM): 0.769 | relative viability (Bromopyruvate; 100 µM): 0.773

NCI-H1650
relative viability (Bicalutamide; 0.08 µM): 0.967 | relative viability (Bicalutamide; 0.253 µM): 0.935 | relative viability (Bicalutamide; 0.8 µM): 1.1 | relative viability (Bicalutamide; 2.53 µM): 0.842 | relative viability (Bromopyruvate; 1 µM): 0.998 | relative viability (Bromopyruvate; 3.162 µM): 0.835 | relative viability (Bromopyruvate; 10 µM): 0.959 | relative viability (Bromopyruvate; 31.62 µM): 0.938 | relative viability (Bromopyruvate; 100 µM): 0.865

NCI-H1651
relative viability (Bicalutamide; 0.08 µM): 0.995 | relative viability (Bicalutamide; 0.253 µM): 0.93 | relative viability (Bicalutamide; 0.8 µM): 1.16 | relative viability (Bicalutamide; 2.53 µM): 0.972 | relative viability (Bromopyruvate; 1 µM): 1.01 | relative viability (Bromopyruvate; 3.162 µM): 0.991 | relative viability (Bromopyruvate; 10 µM): 1.07 | relative viability (Bromopyruvate; 31.62 µM): 0.958 | relative viability (Bromopyruvate; 100 µM): 0.924

NCI-H1666
relative viability (Bicalutamide; 0.08 µM): 1.04 | relative viability (Bicalutamide; 0.253 µM): 0.854 | relative viability (Bicalutamide; 0.8 µM): 0.96 | relative viability (Bicalutamide; 2.53 µM): 1.01 | relative viability (Bromopyruvate; 1 µM): 0.971 | relative viability (Bromopyruvate; 3.162 µM): 0.98 | relative viability (Bromopyruvate; 10 µM): 1.04 | relative viability (Bromopyruvate; 31.62 µM): 0.937 | relative viability (Bromopyruvate; 100 µM): 0.965

NCI-H1703
relative viability (Bicalutamide; 0.08 µM): 0.941 | relative viability (Bicalutamide; 0.253 µM): 1.01 | relative viability (Bicalutamide; 0.8 µM): 0.983 | relative viability (Bicalutamide; 2.53 µM): 0.738 | relative viability (Bromopyruvate; 1 µM): 0.914 | relative viability (Bromopyruvate; 3.162 µM): 0.981 | relative viability (Bromopyruvate; 10 µM): 0.955 | relative viability (Bromopyruvate; 31.62 µM): 0.94 | relative viability (Bromopyruvate; 100 µM): 0.778

NCI-H1734
relative viability (Bicalutamide; 0.08 µM): 0.991 | relative viability (Bicalutamide; 0.253 µM): 0.886 | relative viability (Bicalutamide; 0.8 µM): 1.14 | relative viability (Bicalutamide; 2.53 µM): 0.926 | relative viability (Bromopyruvate; 1 µM): 0.971 | relative viability (Bromopyruvate; 3.162 µM): 1.02 | relative viability (Bromopyruvate; 10 µM): 1.15 | relative viability (Bromopyruvate; 31.62 µM): 1 | relative viability (Bromopyruvate; 100 µM): 0.979

NCI-H1755
relative viability (Bicalutamide; 0.08 µM): 0.988 | relative viability (Bicalutamide; 0.253 µM): 1.01 | relative viability (Bicalutamide; 0.8 µM): 1.05 | relative viability (Bicalutamide; 2.53 µM): 0.876 | relative viability (Bromopyruvate; 1 µM): 0.977 | relative viability (Bromopyruvate; 3.162 µM): 0.964 | relative viability (Bromopyruvate; 10 µM): 1.06 | relative viability (Bromopyruvate; 31.62 µM): 1.01 | relative viability (Bromopyruvate; 100 µM): 1.02
